Measured values reported in ChEMBL document CHEMBL1201862, “PubChem BioAssay data set” (2004).
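Values below derive from 48-hour exposures of cells grown in 96-well plates, with endpoints linearly interpolated between the two concentrations bracketing the appropriate inhibition level. GI50 marks 50% less growth.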 Active and inactive are the calls of the source. No stated cut-off is given here; in the data, active = GI50 up to about 1.1 µM and inactive = higher.

What was measured:
Experiment in all cases: NCI-60 cell line screen, 48 h
HOP-62 = tested on: HOP-62
NCI/ADR-RES = tested on: NCI/ADR-RES
HCC 2998 = tested on: HCC 2998
M14 = tested on: M14
MDA-MB-231 = tested on: MDA-MB-231
CAKI-1 = tested on: CAKI-1
OVCAR-5 = tested on: OVCAR-5
EKVX = tested on: EKVX
MOLT-4 = tested on: MOLT-4
ACHN = tested on: ACHN
HT-29 = tested on: HT-29
MDA-MB-435 = tested on: MDA-MB-435
Hs-578T = tested on: Hs-578T
SW-620 = tested on: SW-620
PC-3 = tested on: PC-3
U-251 = tested on: U-251
HCT-116 = tested on: HCT-116
OVCAR-4 = tested on: OVCAR-4
RXF 393 = tested on: RXF 393
UO-31 = tested on: UO-31

| SMILES | GI50 (HOP-62) | GI50 (NCI/ADR-RES) | GI50 (HCC 2998) | GI50 (M14) | GI50 (MDA-MB-231) | GI50 (CAKI-1) | GI50 (OVCAR-5) | GI50 (EKVX) | GI50 (MOLT-4) | GI50 (ACHN) | GI50 (HT-29) | GI50 (MDA-MB-435) | GI50 (Hs-578T) | GI50 (SW-620) | GI50 (PC-3) | GI50 (U-251) | GI50 (HCT-116) | GI50 (OVCAR-4) | GI50 (RXF 393) | GI50 (UO-31) |
| --- | --- | --- | --- | --- | --- | --- | --- | --- | --- | --- | --- | --- | --- | --- | --- | --- | --- | --- | --- | --- |
| Cc1ccc(N)c(S)c1 | 21.5 µM (inactive) | 24 µM (inactive) | 32.1 µM (inactive) | 16.9 µM (inactive) | 17.1 µM (inactive) | 28.8 µM (inactive) | 22.3 µM (inactive) | 16.2 µM (inactive) | 22 µM (inactive) | 18.5 µM (inactive) | 19.4 µM (inactive) | 19 µM (inactive) | 38 µM (inactive) | 17.6 µM (inactive) | 15.3 µM (inactive) | 15.2 µM (inactive) | 32.1 µM (inactive) | 20 µM (inactive) | 16.8 µM (inactive) | 13.8 µM (inactive) |
| Cc1cccc2c1CC(C1OC(=O)c3ccccc31)C2=O (stereo not given) | > 100 µM (inactive) | > 100 µM (inactive) | > 100 µM (inactive) | > 100 µM (inactive) | > 100 µM (inactive) | > 100 µM (inactive) | > 100 µM (inactive) | > 100 µM (inactive) | > 100 µM (inactive) | > 100 µM (inactive) | 48.5 µM (inactive) | > 100 µM (inactive) | > 100 µM (inactive) | > 100 µM (inactive) | > 100 µM (inactive) | > 100 µM (inactive) | > 100 µM (inactive) | > 100 µM (inactive) | > 100 µM (inactive) | > 100 µM (inactive) |
| C/C=C\C(C)=C/C(C)C(=O)CC(O)CC1CC(=O)NC(=O)C1 (stereo not given) | 12.1 µM (inactive) | 4.71 µM (inactive) | 33.5 µM (inactive) | 13.6 µM (inactive) | > 42.3 µM (inactive) | 7.13 µM (inactive) | 4.86 µM (inactive) | > 100 µM (inactive) | 4.79 µM (inactive) | 17.5 µM (inactive) | 24 µM (inactive) | 28.4 µM (inactive) | 4.09 µM (inactive) | 20.2 µM (inactive) | 9.31 µM (inactive) | 31.2 µM (inactive) | 16.4 µM (inactive) | 19.1 µM (inactive) | 17.1 µM (inactive) | 20.1 µM (inactive) |
| COc1ccc(N2C(=O)CC(=O)N(NC(=O)C(C)Oc3ccccc3C)C2=S)cc1 (stereo not given) | > 100 µM (inactive) | > 100 µM (inactive) | > 100 µM (inactive) | > 100 µM (inactive) | > 100 µM (inactive) | > 100 µM (inactive) | > 100 µM (inactive) | > 100 µM (inactive) | > 100 µM (inactive) | > 100 µM (inactive) | > 100 µM (inactive) | > 100 µM (inactive) | > 100 µM (inactive) | > 100 µM (inactive) | > 100 µM (inactive) | > 100 µM (inactive) | > 100 µM (inactive) | > 100 µM (inactive) | > 100 µM (inactive) | > 100 µM (inactive) |
| CN1C(Cl)=NS(=O)(=O)c2ccccc21 | > 100 µM (inactive) | > 100 µM (inactive) | > 100 µM (inactive) | > 100 µM (inactive) | > 100 µM (inactive) | 16.9 µM (inactive) | > 100 µM (inactive) | > 100 µM (inactive) | 51.4 µM (inactive) | > 100 µM (inactive) | > 100 µM (inactive) | > 100 µM (inactive) | > 100 µM (inactive) | > 100 µM (inactive) | > 100 µM (inactive) | > 100 µM (inactive) | > 100 µM (inactive) | > 100 µM (inactive) | > 100 µM (inactive) | > 100 µM (inactive) |
| FC(F)(F)C1(c2ccccc2)SCc2nc3ccccc3n21 (stereo not given) | > 100 µM (inactive) | > 100 µM (inactive) | > 100 µM (inactive) | > 100 µM (inactive) | > 100 µM (inactive) | > 100 µM (inactive) | > 100 µM (inactive) | > 100 µM (inactive) | 61.7 µM (inactive) | > 100 µM (inactive) | 62.5 µM (inactive) | 40.6 µM (inactive) | > 100 µM (inactive) | > 100 µM (inactive) | 83.6 µM (inactive) | > 100 µM (inactive) | 65.5 µM (inactive) | > 100 µM (inactive) | > 100 µM (inactive) | 55.5 µM (inactive) |
| COc1ccc2c(c1)N=C1CSC(c3cc([N+](=O)[O-])ccc3Cl)N1C2 (stereo not given) | 32.1 µM (inactive) | 23.4 µM (inactive) | 16.6 µM (inactive) | 27.5 µM (inactive) | 20.8 µM (inactive) | 22 µM (inactive) | 24 µM (inactive) | 18.3 µM (inactive) | 22.5 µM (inactive) | 20 µM (inactive) | 23.6 µM (inactive) | 15.6 µM (inactive) | 39.8 µM (inactive) | 29.3 µM (inactive) | 21.5 µM (inactive) | 25.6 µM (inactive) | 20.1 µM (inactive) | 23.8 µM (inactive) | 19.8 µM (inactive) | 19.6 µM (inactive) |
| Cc1cc(N2CCCCC2)nc2ccc(Cc3ccc4nc(N5CCCCC5)cc(C)c4c3)cc12 | > 100 µM (inactive) | > 100 µM (inactive) | 22.8 µM (inactive) | > 100 µM (inactive) | > 100 µM (inactive) | > 100 µM (inactive) | > 100 µM (inactive) | 18.2 µM (inactive) | > 100 µM (inactive) | > 100 µM (inactive) | 23.6 µM (inactive) | > 100 µM (inactive) | > 100 µM (inactive) | > 100 µM (inactive) | > 100 µM (inactive) | > 100 µM (inactive) | 98.9 µM (inactive) | > 100 µM (inactive) | > 100 µM (inactive) | > 100 µM (inactive) |
| c1ccc([P+](CCCCCC[P+](c2ccccc2)(c2ccccc2)c2ccccc2)(c2ccccc2)c2ccccc2)cc1 | 9.18 µM (inactive) | > 100 µM (inactive) | 46.7 µM (inactive) | 28.6 µM (inactive) | 12.8 µM (inactive) | > 100 µM (inactive) | 34.3 µM (inactive) | 54.5 µM (inactive) | 22.9 µM (inactive) | 50.8 µM (inactive) | 7.24 µM (inactive) | 15.2 µM (inactive) | 15.3 µM (inactive) | 18.5 µM (inactive) | 8.51 µM (inactive) | 0.798 µM (active) | 4.51 µM (inactive) | 23.3 µM (inactive) | 11.6 µM (inactive) | > 100 µM (inactive) |
